Measured values as given in article PMC8698672, “Selective Anticancer and Antimicrobial Metallodrugs Based on Gold(III) Dithiocarbamate Complexes” (Biomedicines, 2021).

Assays:
[1] = Stability in phosphate buffer (pH 7.4, 37 °C) followed by UV–Vis over 24 h; type: physicochemical; settings: 50 µM
Experimental: (§1) The stability of the gold complexes was analyzed by absorption UV spectroscopy. UV–Vis absorption spectra of the complexes were recorded on a Thermo Scientific spectrophotometer (Madrid, Spain). Solutions of C1–6 (5 × 10^−5 M) in 10 mM phosphate buffer (pH = 7.4, 137 mM NaCl) were prepared from 20 mM DMSO solutions of the complexes and thereafter monitored by measuring the electronic spectra over 24 h at 37 °C. To evaluate the stability in the presence of biological reductants, all complexes were pre-solved in a minimum amount of DMSO and then diluted in 10 mM phosphate buffer (pH 7.4, 20 mM NaCl) to a final concentration of 10 µM [41]. All experiments were measure on a quartz microplate. Studies with L-glutathion reduced (GSH) and ascorbic acid (AsA) were conducted by increasing the final concentration of 0 to 50 µM (GSH) and from 0–20 µM for AsA.
Due to the aqueous nature of the bloodstream, studies to understand the behavior of our complexes in such an environment were considered necessary in order to determine the stability in simulated physiological conditions, pH = 7.4 and 37 °C. […] Besides, in the cases of complexes C1–4, a low-intensity broad band was detected (322 nm) (Figure 2 and Figure S3). […]
This is usually associated with the formation of Au(III)-OH bonds, increasing the water solubility and, consequently, the intensity of absorbance. […]

[2] = test system: Undifferentiated Caco-2/TC7 cell; assay: Apoptosis/necrosis, Annexin V-FITC / 7-AAD flow cytometry; type: cell-based, human; settings: 20 μM, 24 h
Experimental: For the studies of apoptosis, using the detection of phosphatidylserine in the outer layer of the plasma membrane, an Annexin V-FITC Apoptosis Detection kit (Immunostep, Salamanca, Spain) was used. After incubation with the complexes, the cells were collected and transferred to flow-cytometry tubes. A negative control was prepared with untreated cells, which was used to define the basal level of apoptotic, necrotic, or dead cells. The staining with Annexin V-FITC and 7-Aminoactinomycin D (7-AAD) was performed according to the manufacturer’s recommendations. The cells were washed twice with temperate phosphate-buffered saline (PBS) and resuspended in 200 μL of 1x Annexin-binding buffer. After that, 2.5 μL Annexin V-FITC and 2.5 μL […] were added to each 50 μL of cell suspension. After incubation for 15 min at RT in the dark, 400 μL of 1× Annexin-binding buffer were added and analyzed by flow cytometry within 1 h. The signal intensity was measured using a Gallios Flow Cytometer (Beckman Coulter, Brea, CA, USA) and analyzed using the Kaluza Analysis Software (Beckman Coulter).
After obtaining great results from the cell viability studies, it was determined that only non-cytotoxic complexes on normal cells are good candidates as anticancer drugs, so complexes C1, C5, and C6 were selected for the following studies. Thus, we proceeded to elucidate the action mechanism of these three complexes to induce cell death. The most convenient cell death for anticancer drugs is apoptosis, since in this way no inflammation processes occur and it is carefully controlled. The apoptotic way is normally characterized by several morphological changes in the cell membrane, by which phosphatidylserine (PS) is exposed, moving from the inner part to the outer surface of the membrane. Thanks to this translocation, Annexin V (FITC-conjugated) can interact selectively with the PS, differentiating healthy cells from apoptotic cells. Besides, cells undergoing late apoptosis stages and necrotic cells present deep damage in the membrane that makes 7-aminoactinomycin D (7-AAD) access the nucleus. Therefore, by using flow cytometry, all different cell populations can be distinguished.
Figure 4 Undifferentiated Caco-2/TC7 cell apoptotic-state (a) and necrotic-state (b) analysis after 24 h of incubation with C1, C5, and C6 (20 µM).

Caco-2/TC7 cells = assay: Oxidative stress damage, protein carbonyl levels (DNPH); type: cell-based, human; settings: 20 μM, 24 h
Experimental: Cell homogenates needed for this assay were prepared according to a previously described method. Protein oxidation was analyzed by carbonyl-level measurement as previously described. Cell homogenates were incubated with the classical carbonyl reagent 2,4-dinitrophenylhydrazine (DNPH), and protein carbonylation was measured spectrophotometrically at 375 nm. The results were calculated in nmol carbonyl groups mg^−1 protein.
According to the literature, gold complexes act as anticancer agents by the disruption of redox homeostasis. As a result, the concentration of ROS species rises and consequently, main biomolecules, such as lipids, proteins, or even DNA, can be oxidized. However, tumor cells present an overproduction of ROS species due to their high metabolism. The most common anticancer strategy is promoting a higher oxidative damage in biomolecules to trigger the apoptosis process. […] In this study, we evaluated the oxidation levels of the carbonyl groups present in proteins by the established method of 2,4-dinitrophenylhydrazine (DNPH).
Figure 6 Carbonyl levels (nmol mg^−1 protein) in Caco-2/TC7 cells treated with vehicle DMSO (control) or gold(III) complexes (24 h, 20 μM). Values are expressed as mean values ± SEM (n ≥ 6 experiments). ** p < 0.01; *** p < 0.001 vs. control.

[3] = Stability in the presence of reduced L-glutathione (GSH), UV–Vis; type: physicochemical; settings: GSH 0–50 µM, PBS, 37 °C, 24 h
Experimental: as §1
This is usually associated with the formation of Au(III)-OH bonds, increasing the water solubility and, consequently, the intensity of absorbance. […] We observed that our complexes were stable with the addition of GSH over 24 h, even in a high excess of GSH to Au(III) complexes (50 vs. 16 µM) (Figure S4), since no evidence of decomposition or new bands was detected. […]

Structure (SMILES): Cc1ccc(-c2ccccn2)[c]([Au+][S]C(=S)N(C)C)c1.F[P-](F)(F)(F)(F)F [Complex C1, [Au(tpy)(dmdtc)] PF6]
- Stability in PBS (UV–Vis spectra over time) [1]: absence of new bands around 550 nm
- necrosis [2]: did not die because of necrosis
- percentage of cells in apoptosis vs control [2]: no significant differences
- oxidized protein (carbonyl) levels vs control (Caco-2/TC7 cells): did not promote oxidative stress damage

Structure (SMILES): CN(C)C(=S)[S][Au+][c]1ccccc1-c1ccccn1.F[P-](F)(F)(F)(F)F [Complex C2, [Au(ppy)(dmdtc)]PF6]
- Stability towards GSH (UV–Vis spectra) [3]: slight changes in intensity

Structure (SMILES): CCN(CC)C(=S)[S][Au+][c]1cc(C)ccc1-c1ccccn1.F[P-](F)(F)(F)(F)F [Complex C3, [Au(tpy)(dedtc)]PF6]
- Stability towards GSH (UV–Vis spectra) [3]: slight changes in intensity

Structure (SMILES): Cc1ccc2[c](c1)[Au-]1([S]C(N(Cc3ccccc3)Cc3ccccc3)=[S+]1)[n+]1ccccc1-2.F[P-](F)(F)(F)(F)F (stereo not shown) [Complex C5, [Au(tpy)(dbdtc)]PF6]
- Stability in PBS (UV–Vis spectra over time) [1]: slight increase in the intensity of 328 nm band
- necrosis [2]: did not die because of necrosis
- percentage of cells in apoptosis vs control [2]: no significant differences
- oxidized protein (carbonyl) levels vs control (Caco-2/TC7 cells): did not promote oxidative stress damage

Structure (SMILES): F[P-](F)(F)(F)(F)F.S=C([S][Au+][c]1ccccc1-c1ccccn1)N(Cc1ccccc1)Cc1ccccc1 [Complex C6, [Au(ppy)(dbdtc)]PF6]
- necrosis [2]: did not die because of necrosis
- percentage of cells in apoptosis vs control [2]: no significant differences
- oxidized protein (carbonyl) levels vs control (Caco-2/TC7 cells): did not promote oxidative stress damage
